Source: ChEMBL document CHEMBL1201862, “PubChem BioAssay data set” (2004)
The source made the active and inactive calls.

Tests used:
[1] = target: T1, Corticotropin-releasing factor receptor 2/Corticotropin-releasing factor-binding protein (Homo sapiens, UniProt P24387+Q13324); test: Dose Response confirmation of uHTS hits for small molecule antagonists of the CRF-binding protein and CRF-R2 receptor complex.; assay type: functional; settings: read-out: IC50_Mean
T1 sequence (Q13324 whole entry): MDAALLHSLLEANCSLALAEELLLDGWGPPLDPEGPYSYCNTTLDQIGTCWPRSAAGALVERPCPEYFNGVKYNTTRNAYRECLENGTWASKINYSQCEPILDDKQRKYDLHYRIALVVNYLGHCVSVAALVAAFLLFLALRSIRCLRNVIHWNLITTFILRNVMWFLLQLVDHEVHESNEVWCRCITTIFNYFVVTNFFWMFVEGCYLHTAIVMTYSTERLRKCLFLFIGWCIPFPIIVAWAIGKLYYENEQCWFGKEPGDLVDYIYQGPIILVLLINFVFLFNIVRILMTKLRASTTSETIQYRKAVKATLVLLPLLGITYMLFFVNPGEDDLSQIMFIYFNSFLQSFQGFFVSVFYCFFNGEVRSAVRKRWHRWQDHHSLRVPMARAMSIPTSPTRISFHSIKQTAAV
T1 sequence (P24387 whole entry): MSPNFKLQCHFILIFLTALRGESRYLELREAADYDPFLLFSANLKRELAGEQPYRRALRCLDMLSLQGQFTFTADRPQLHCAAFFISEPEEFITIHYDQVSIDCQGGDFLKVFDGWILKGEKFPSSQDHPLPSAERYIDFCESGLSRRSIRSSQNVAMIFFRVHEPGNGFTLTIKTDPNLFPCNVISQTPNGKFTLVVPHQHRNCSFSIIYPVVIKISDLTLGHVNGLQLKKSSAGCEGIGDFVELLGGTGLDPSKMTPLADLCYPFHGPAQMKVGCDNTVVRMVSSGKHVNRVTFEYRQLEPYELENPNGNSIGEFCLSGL

[2] = target: T1, Corticotropin-releasing factor receptor 2/Corticotropin-releasing factor-binding protein; test: activators of CRF receptor 2 with binding protein – uHTS hits, confirmation (AID 602473); assay type: functional; settings: read-out: EC50_Mean
[3] = CRF-BP/CRF-R2 complex antagonists, dose response, cell-based, uHTS hits, 384-well (AID 651639); assay type: functional, Homo sapiens; settings: read-out: IC50_Mean
[4] = target: T2, Probable nicotinate-nucleotide adenylyltransferase (Staphylococcus aureus (strain N315), UniProt P65502); assay type: functional, Staphylococcus aureus subsp. aureus N315;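 on IC50 Mean: confirmatory dose-response retesting of NadD inhibitor hits first found in an ultra-high-throughput screen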
[5] = target: T2, Probable nicotinate-nucleotide adenylyltransferase; assay type: functional, Staphylococcus aureus subsp. aureus N315; settings: read-out: IC50_Mean
[6] = target: T3, Heat shock factor protein 1 (Mus musculus, UniProt P38532); test: HSF1 potentiators in luciferase reporter cells, confirmation, cell-based, NIH3T3, luminescence, dose retest (AID 435004); assay type: functional;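 further: stress induced by proteasome inhibitor MG132 added 30 min after compound; luciferase reporter driven by HSF1 response element in NIH3T3 cells; actives raise luminescence as potentiators of the MG132 stress response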
T3 sequence (P38532 whole entry): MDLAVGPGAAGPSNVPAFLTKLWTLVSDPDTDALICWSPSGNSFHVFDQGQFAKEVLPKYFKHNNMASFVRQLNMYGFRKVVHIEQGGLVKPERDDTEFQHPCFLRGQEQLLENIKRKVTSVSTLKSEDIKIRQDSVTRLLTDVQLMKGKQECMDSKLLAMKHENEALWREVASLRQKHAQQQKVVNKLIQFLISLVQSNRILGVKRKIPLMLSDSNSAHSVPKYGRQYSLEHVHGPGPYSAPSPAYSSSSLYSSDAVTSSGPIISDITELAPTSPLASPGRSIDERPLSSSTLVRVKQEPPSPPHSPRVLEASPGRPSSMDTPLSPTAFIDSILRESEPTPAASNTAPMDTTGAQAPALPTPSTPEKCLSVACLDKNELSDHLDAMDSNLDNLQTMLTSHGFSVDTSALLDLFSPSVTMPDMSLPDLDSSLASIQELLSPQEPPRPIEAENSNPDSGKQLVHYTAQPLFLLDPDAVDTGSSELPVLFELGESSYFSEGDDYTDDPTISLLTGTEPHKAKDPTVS

[7] = target: T4, Methionyl-tRNA synthetase, putative (Trypanosoma brucei brucei, UniProt Q38C91); assay type: functional, Trypanosoma brucei brucei strain 927/4 GUTat10.1
T4 sequence (Q38C91 whole entry): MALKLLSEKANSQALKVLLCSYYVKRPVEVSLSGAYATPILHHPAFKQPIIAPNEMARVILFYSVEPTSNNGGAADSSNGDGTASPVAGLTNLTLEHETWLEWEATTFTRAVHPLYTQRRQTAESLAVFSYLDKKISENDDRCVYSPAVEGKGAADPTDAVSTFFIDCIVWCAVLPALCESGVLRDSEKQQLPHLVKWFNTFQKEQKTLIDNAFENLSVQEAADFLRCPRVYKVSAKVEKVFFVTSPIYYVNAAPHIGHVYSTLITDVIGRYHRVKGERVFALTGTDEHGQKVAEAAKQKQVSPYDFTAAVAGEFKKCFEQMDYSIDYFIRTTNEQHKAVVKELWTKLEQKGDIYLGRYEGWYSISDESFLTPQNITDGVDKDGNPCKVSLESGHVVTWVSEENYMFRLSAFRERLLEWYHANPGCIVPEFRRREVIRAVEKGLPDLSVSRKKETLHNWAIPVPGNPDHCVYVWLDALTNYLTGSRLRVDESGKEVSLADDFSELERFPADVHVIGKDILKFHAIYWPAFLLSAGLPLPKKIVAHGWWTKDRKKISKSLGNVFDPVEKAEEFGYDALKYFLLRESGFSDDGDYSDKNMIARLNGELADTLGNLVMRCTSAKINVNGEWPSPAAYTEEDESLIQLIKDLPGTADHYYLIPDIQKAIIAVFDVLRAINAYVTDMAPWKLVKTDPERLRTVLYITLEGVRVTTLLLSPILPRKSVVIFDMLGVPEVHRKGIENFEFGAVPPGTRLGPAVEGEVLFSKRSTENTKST

[8] = Counterscreen for inhibitors of Trypanosoma brucei methionyl tRNA synthetase (MetRS): Luminescence-based cell-based high throughput dose response assay to identify compounds that are cytotoxic to Jurkat human T lymphocyte cells.; assay type: functional
[9] = target: T4, Methionyl-tRNA synthetase, putative; assay type: functional, Trypanosoma brucei brucei strain 927/4 GUTat10.1; remark: listed apart in the source
[10] = target: T5, Short transient receptor potential channel 4 (Mus musculus, UniProt Q9QUQ5); test: mouse TRPC4 channel inhibitors, dose response, cell-based, HEK293 TRPC4/mu-opioid, Fluo-4 calcium (AID 434942); assay type: functional;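 further: potency of inhibitors blocking the TRPC4 calcium response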
T5 sequence (Q9QUQ5 whole entry): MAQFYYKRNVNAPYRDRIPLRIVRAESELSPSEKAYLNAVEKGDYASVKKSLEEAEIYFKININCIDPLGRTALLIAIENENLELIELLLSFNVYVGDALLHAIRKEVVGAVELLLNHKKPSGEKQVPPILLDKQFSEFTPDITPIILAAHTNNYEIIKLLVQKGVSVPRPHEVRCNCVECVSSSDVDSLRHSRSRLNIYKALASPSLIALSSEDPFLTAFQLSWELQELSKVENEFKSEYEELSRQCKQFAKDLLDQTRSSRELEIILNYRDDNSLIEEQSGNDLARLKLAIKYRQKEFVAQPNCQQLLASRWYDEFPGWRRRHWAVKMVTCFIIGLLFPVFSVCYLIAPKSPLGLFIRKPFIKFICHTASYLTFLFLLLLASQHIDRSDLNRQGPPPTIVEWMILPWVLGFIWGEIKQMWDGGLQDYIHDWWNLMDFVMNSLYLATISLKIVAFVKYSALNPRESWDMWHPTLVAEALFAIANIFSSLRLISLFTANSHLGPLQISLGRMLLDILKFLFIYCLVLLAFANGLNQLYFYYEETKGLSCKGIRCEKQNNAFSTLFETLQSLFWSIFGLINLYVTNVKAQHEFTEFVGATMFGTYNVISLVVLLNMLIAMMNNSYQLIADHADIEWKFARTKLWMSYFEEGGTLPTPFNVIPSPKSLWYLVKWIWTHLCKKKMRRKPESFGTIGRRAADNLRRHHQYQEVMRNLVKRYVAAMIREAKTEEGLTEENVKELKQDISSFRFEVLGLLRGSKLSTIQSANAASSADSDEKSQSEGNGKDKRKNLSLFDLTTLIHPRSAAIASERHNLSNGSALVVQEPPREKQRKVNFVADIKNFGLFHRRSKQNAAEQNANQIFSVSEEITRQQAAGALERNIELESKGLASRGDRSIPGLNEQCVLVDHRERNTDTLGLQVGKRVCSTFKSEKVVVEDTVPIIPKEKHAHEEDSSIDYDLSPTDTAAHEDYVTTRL

[11] = target: T6, DNA repair protein RAD52 homolog (Homo sapiens, UniProt P43351); assay type: functional, biochemical
T6 sequence (P43351 whole entry): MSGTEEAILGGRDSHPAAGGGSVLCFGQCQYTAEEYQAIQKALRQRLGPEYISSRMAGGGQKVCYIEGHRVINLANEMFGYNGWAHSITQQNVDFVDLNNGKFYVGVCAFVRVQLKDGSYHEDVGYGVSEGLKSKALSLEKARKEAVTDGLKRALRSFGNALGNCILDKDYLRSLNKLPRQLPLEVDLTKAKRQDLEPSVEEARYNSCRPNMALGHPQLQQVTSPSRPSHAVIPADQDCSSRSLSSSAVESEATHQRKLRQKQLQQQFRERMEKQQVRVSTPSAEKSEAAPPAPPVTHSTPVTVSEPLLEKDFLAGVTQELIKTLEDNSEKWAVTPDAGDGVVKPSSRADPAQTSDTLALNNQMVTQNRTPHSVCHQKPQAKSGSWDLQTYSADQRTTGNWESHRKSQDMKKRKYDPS

Cysteine protease ATG4B = target: T7, Cysteine protease ATG4B (Homo sapiens, UniProt Q9Y4P1); assay type: functional;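 further: Fluorescence-based dose-response confirmation assay measuring inhibition of ATG4B activity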
T7 sequence (Q9Y4P1 whole entry): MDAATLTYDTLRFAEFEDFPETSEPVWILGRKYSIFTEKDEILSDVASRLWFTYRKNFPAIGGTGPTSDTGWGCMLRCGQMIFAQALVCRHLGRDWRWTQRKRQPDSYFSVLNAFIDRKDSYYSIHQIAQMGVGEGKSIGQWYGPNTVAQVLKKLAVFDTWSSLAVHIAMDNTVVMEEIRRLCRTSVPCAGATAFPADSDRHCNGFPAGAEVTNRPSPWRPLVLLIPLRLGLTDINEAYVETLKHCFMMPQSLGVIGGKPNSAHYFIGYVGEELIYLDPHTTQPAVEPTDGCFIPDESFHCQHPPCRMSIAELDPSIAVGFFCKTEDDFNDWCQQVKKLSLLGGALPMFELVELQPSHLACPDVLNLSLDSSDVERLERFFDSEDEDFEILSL

Phospholipase A2 = Phospholipase A2 (Homo sapiens, UniProt P04054); assay type: functional;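 further: confirmatory dose-response counterscreen on phospholipase A2, testing hits that came from an ultra-high-throughput screen for ATG4B inhibitors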
Vero = test: cells; assay type: functional; settings: Chlorocebus sabaeus
[12] = target: 26S proteasome non-ATPase regulatory subunit 14 (Homo sapiens, UniProt O00487); test: inhibition of proteasome subunit RPN11 – biochemical, fluorescence polarization, uHTS hits, confirmation (AID 602368); assay type: functional
[13] = target: 72 kDa type IV collagenase (Homo sapiens, UniProt P08253); test: Dose Response validation of uHTS RPN11 inhibitor hits using a MMP-2 Fluorescence assay.; assay type: functional
Prothrombin = Prothrombin (Bos taurus, UniProt P00735); test: thrombin inhibition, dose response, biochemical, fluorescence polarization, uHTS hits (AID 602369); assay type: functional

T2 sequence (P65502 whole entry): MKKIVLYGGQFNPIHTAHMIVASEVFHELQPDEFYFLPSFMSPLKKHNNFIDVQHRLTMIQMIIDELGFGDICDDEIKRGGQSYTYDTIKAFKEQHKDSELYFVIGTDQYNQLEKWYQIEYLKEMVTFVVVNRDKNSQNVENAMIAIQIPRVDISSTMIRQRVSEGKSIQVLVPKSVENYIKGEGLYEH
Sequence of 26S proteasome non-ATPase regulatory subunit 14 (O00487 whole entry): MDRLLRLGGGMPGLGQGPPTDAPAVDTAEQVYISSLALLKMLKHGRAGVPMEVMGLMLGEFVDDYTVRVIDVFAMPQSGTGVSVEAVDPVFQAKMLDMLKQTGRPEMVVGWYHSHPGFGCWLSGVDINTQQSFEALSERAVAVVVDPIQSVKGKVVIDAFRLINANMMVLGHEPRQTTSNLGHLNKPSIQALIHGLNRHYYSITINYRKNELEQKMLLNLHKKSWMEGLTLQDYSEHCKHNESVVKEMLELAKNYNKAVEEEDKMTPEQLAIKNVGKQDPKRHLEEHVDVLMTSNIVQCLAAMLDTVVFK
Sequence of Phospholipase A2 (P04054 whole entry): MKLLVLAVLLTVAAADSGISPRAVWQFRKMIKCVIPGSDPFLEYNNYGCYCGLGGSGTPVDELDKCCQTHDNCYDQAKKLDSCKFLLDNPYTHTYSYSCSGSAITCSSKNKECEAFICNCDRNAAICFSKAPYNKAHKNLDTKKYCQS
Sequence of 72 kDa type IV collagenase (P08253 whole entry): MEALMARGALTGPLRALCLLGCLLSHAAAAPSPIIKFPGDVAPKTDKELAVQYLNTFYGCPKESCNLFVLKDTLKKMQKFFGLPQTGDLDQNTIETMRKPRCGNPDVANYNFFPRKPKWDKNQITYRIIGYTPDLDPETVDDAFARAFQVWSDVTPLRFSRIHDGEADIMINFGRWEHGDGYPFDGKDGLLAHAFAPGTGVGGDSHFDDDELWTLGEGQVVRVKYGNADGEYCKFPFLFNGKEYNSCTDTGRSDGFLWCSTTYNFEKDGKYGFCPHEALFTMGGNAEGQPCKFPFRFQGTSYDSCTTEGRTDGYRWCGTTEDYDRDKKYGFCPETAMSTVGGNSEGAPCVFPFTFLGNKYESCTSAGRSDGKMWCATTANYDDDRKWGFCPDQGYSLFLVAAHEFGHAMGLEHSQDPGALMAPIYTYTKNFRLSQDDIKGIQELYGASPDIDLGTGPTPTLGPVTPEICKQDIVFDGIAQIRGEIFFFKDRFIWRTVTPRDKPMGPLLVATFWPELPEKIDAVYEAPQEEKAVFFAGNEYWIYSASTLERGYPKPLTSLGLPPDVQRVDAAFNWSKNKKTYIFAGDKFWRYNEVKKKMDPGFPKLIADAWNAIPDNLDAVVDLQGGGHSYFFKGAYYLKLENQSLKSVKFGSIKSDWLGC

Which results are given for `CCOc1ccc(S(=O)(=O)n2ccc(C)n2)c2ccccc12`?
IC50 [1]: < 0.368 µM (active); EC50 [2]: 21.2 µM (active); IC50 [3]: 11.7 µM (active)

For `Cc1ccc(-n2nc3c(c2NC(=O)/C=C\c2ccc4c(c2)OCO4)CSC3)c(C)c1`, which IC50 [4] is on record?
The IC50 was 5.88 µM (active).

What about the IC50 [5] of the same molecule?
Its IC50 is 21.5 µM (active).

Which results are given for `CCOC(=O)c1sc(NC(=O)Nc2ccccc2)cc1C`?
EC50 [6]: > 260 µM (inconclusive); IC50 [7]: 4.39 µM (active); IC50 [8]: 45 µM (inactive); IC50 [9]: 43.9 µM (inactive)

Which EC50 [10] does the source give for `CCc1ccc2nc(NC(=N)N)nc(C)c2c1` here?
The EC50 was 15 µM (active).

And the AC50 [11]?
Its AC50 is 16.8 µM (active).

With `N#Cc1ccsc1NC(=O)c1cccc([N+](=O)[O-])c1` as the molecule, how does the IC50 [1] read?
Its IC50 is 3.12 µM (active).

And the EC50 [2]?
Its EC50 is 4.08 µM (active).

What about the IC50 [3] of the same molecule?
The IC50 was > 20 µM (inactive).

Which IC50 [1] does the source give for `Cc1ccc(S(=O)(=O)N2CCCCC2)cc1C(=O)N(CCc1ccccc1)Cc1ccccc1` here?
The IC50 was 1.19 µM (active).

What about the EC50 [2] of the same molecule?
Its EC50 is > 53 µM (inactive).

And the IC50 [3]?
Its IC50 is 19.3 µM (active).

What does the source list for `CCCCCCCCCCCCCCC(O)C[N+](C)(CCO)CCO` (configuration not stated)?
IC50 (Cysteine protease ATG4B): 8.23 µM (active); IC50 (Phospholipase A2): 7.95 µM (active); CC50 (Vero): 13.1 µM (active); IC50 [12]: 25.3 µM (active); IC50 [13]: 85 µM (active); IC50 (Prothrombin): 50 µM (active); AC50 [11]: 8.88 µM (active)

Which results are given for `CCOc1ccccc1NS(=O)(=O)c1c(C)[nH]c(C)c1C(=O)N1CCCCC1`?
IC50 [7]: 26.1 µM (inactive); IC50 [8]: 83.3 µM (inactive); IC50 [9]: 11.2 µM (inactive)

For `O=C(NCc1cc(Cl)cc(Cl)c1)c1csc(COCCO)n1`, which IC50 [7] is on record?
Its IC50 is 12.2 µM (inactive).

And the IC50 [8]?
The IC50 was 83.3 µM (inactive).

What about the IC50 [9] of the same molecule?
The IC50 was 5.4 µM (active).

Which results are given for `Nc1ccccc1C(=O)NNC(=O)/C(O)=C/C(=O)c1ccccc1`?
IC50 [4]: 4.63 µM (active); IC50 [5]: 12 µM (active)
